Experimental data from patent US9227971B2, “Pyrazolo[1,5-a]pyrimidine compounds as mTOR inhibitors” (Merck Sharp & Dohme Corp., priority 2010, dated 2016).
Where two headings read alike, the source gives them in different places.

Legend:
[1] = system: phosphorylated AKT Ser473 (pAKT S473), mTORC2 activity, PC3 cells; assay: mTOR target engagement assay, immunofluorescent cell-based, pAKT S473 readout (mTORC2 activity); conditions: PC3 cells
Summary of the method: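 After blocking, cells were stained overnight at 4 °C with anti-pAKT S473 antibody, then a fluorescent secondary; inhibition was read as reduced fluorescence intensity.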

[2] = system: phosphorylated 4E-BP1 Thr37/46 (p4E-BP1 Thr37/46), mTORC1 activity, PC3 cells; assay: mTOR target engagement assay, immunofluorescent cell-based, p4E-BP1 Thr37/46 readout (mTORC1 activity); conditions: PC3 cells, read-out: p4E-BP1 Thr37/46 IC50
Summary of the method: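 PTEN-mutant PC3 prostate cells were treated with serially diluted compound in 5% FBS F12 medium (0.25% DMSO) for ninety minutes at 37° C, glyoxal-fixed, then immunostained overnight at 4° C for p4E-BP1 Thr37/46 with an Alexa Fluor 488 secondary. IC50 came from four-parameter fits of fluorescence, DMSO-only wells defining 100%.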

SMILES | IC50 ([1]; Homo sapiens, PC-3, Table 3-1) | IC50 ([2]; Homo sapiens, PC-3, Table 3-1) | IC50 ([1]; Table 3-1) | IC50 ([2]; Table 3-1)
CC(C)S(=O)(=O)c1c([C@@H]2C[C@H]3CC[C@@H](C2)N3C(=O)c2nnc[nH]2)nc2c(-c3ccc(-c4ccccc4)nc3)cnn2c1N [Compound 3.163, ((1R,3s,5S)-3-(7-amino-6-(isopropylsulfonyl)-3-(6-phenylpyridin-3-yl)pyrazolo[1,5-a]pyrimidin-5-yl)-8-azabicyclo[3.2.1]octan-8-yl)(4H-1,2,4-triazol-3-yl)methanone] | 100 to 1000 nM | 100 to 1000 nM |  | 
COc1ccc(-c2ccc(-c3cnn4c(N)c(S(C)(=O)=O)c([C@@H]5C[C@H]6CC[C@@H](C5)N6C(=O)c5nnc[nH]5)nc34)cn2)cn1 [Compound 3.164, ((1R,3s,5S)-3-(7-amino-3-(6′-methoxy-2,3′-bipyridin-5-yl)-6-(methylsulfonyl)pyrazolo[1,5-a]pyrimidin-5-yl)-8-azabicyclo[3.2.1]octan-8-yl)(4H-1,2,4-triazol-3-yl)methanone] | 100 to 1000 nM | 100 to 1000 nM |  | 
CS(=O)(=O)c1c([C@H]2CC3CC[C@H](C2)N3C(=O)c2nnc[nH]2)nc2c(-c3ccc(C4CCCCC4)nc3)cnn2c1N [Compound 3.165, ((1R,3s,5S)-3-(7-amino-3-(6-cyclohexylpyridin-3-yl)-6-(methylsulfonyl)pyrazolo[1,5-a]pyrimidin-5-yl)-8-azabicyclo[3.2.1]octan-8-yl)(4H-1,2,4-triazol-3-yl)methanone] | 100 to 1000 nM | 100 to 1000 nM |  | 
CS(=O)(=O)c1c([C@H]2CC3CC[C@H](C2)N3C(=O)c2nnc[nH]2)nc2c(-c3ccc(C4CCCC4)nc3)cnn2c1N [Compound 3.166, ((1R,3s,5S)-3-(7-amino-3-(6-cyclopentylpyridin-3-yl)-6-(methylsulfonyl)pyrazolo[1,5-a]pyrimidin-5-yl)-8-azabicyclo[3.2.1]octan-8-yl)(4H-1,2,4-triazol-3-yl)methanone] | 100 to 1000 nM | 100 to 1000 nM |  | 
CS(=O)(=O)c1c([C@H]2CC3CC[C@H](C2)N3C(=O)c2ncn[nH]2)nc2c(-c3ccc(C4CCC4)nc3)cnn2c1N [Compound 3.167, ((1R,3s,5S)-3-(7-amino-3-(6-cyclobutylpyridin-3-yl)-6-(methylsulfonyl)pyrazolo[1,5-a]pyrimidin-5-yl)-8-azabicyclo[3.2.1]octan-8-yl)(1H-1,2,4-triazol-5-yl)methanone] | 100 to 1000 nM | 100 to 1000 nM |  | 
COc1ccc(-c2ccc(-c3cnn4c(N)c(S(C)(=O)=O)c([C@H]5CC6CC[C@H](C5)N6C(=O)c5cn[nH]n5)nc34)cn2)cc1F [Compound 3.169, ((1R,3a,5S)-3-(7-amino-3-(6-(3-fluoro-4-methoxyphenyl)pyridin-3-yl)-6-(methylsulfonyl)pyrazolo[1,5-a]pyrimidin-5-yl)-8-azabicyclo[3.2.1]octan-8-yl)(2H-1,2,3-triazol-4-yl)methanone] | 1 to 100 nM | 100 to 1000 nM |  | 
CS(=O)(=O)c1c([C@H]2CC3CC[C@H](C2)N3C(=O)c2cn[nH]n2)nc2c(-c3ccc(-c4ccccc4F)nc3)cnn2c1N [Compound 3.170, ((1R,3s,5S)-3-(7-amino-3-(6-(2-fluorophenyl)pyridin-3-yl)-6-(methylsulfonyl)pyrazolo[1,5-a]pyrimidin-5-yl)-8-azabicyclo[3.2.1]octan-8-yl)(2H-1,2,3-triazol-4-yl)methanone] | 100 to 1000 nM | 100 to 1000 nM |  | 
CONC(=O)N1C2CC[C@@H]1C[C@@H](c1nc3c(-c4ccc(-c5ccccc5)nc4)cnn3c(N)c1S(C)(=O)=O)C2 [Compound 3.171, (1R,3s,5S)-3-(7-amino-6-(methylsulfonyl)-3-(6-phenylpyridin-3-yl)pyrazolo[1,5-a]pyrimidin-5-yl)-N-methoxy-8-azabicyclo[3.2.1]octane-8-carboxamide] | 100 to 1000 nM | 100 to 1000 nM |  | 
CS(=O)(=O)c1c([C@H]2CC3CC[C@H](C2)N3C(=O)NO)nc2c(-c3ccc(-c4ccccc4)nc3)cnn2c1N [Compound 3.172, (1R,3s,5S)-3-(7-amino-6-(methylsulfonyl)-3-(6-phenylpyridin-3-yl)pyrazolo[1,5-a]pyrimidin-5-yl)-N-hydroxy-8-azabicyclo[3.2.1]octane-8-carboxamide] | 100 to 1000 nM | 1 to 100 nM |  | 
CS(=O)(=O)c1c([C@H]2CC3CC[C@H](C2)N3C(=O)c2cnn[nH]2)nc2c(-c3ccc(-c4c(F)cccc4F)nc3)cnn2c1N [Compound 3.173, ((1R,3s,5S)-3-(7-amino-3-(6-(2,6-difluorophenyl)pyridin-3-yl)-6-(methylsulfonyl)pyrazolo[1,5-a]pyrimidin-5-yl)-8-azabicyclo[3.2.1]octan-8-yl)(1H-1,2,3-triazol-5-yl)methanone] | 100 to 1000 nM | 100 to 1000 nM |  | 
Cn1ccc(-c2ccc(-c3cnn4c(N)c(S(C)(=O)=O)c([C@@H]5C[C@H]6CC[C@@H](C5)N6C(=O)c5cn[nH]n5)nc34)cn2)n1 [Compound 3.174, ((1R,3s,5S)-3-(7-amino-3-(6-(1-methyl-1H-pyrazol-3-yl)pyridin-3-yl)-6-(methylsulfonyl)pyrazolo[1,5-a]pyrimidin-5-yl)-8-azabicyclo[3.2.1]octan-8-yl)(2H-1,2,3-triazol-4-yl)methanone] | 100 to 1000 nM | 100 to 1000 nM |  | 
CS(=O)(=O)c1c([C@H]2CC3CC[C@H](C2)N3C(=O)c2cn[nH]n2)nc2c(-c3cnc(-c4ccccc4)cn3)cnn2c1N [Compound 3.175] | 1000 to 10000 nM | 1000 to 10000 nM |  | 
CS(=O)(=O)c1c([C@H]2CC3CC[C@H](C2)N3C(=O)c2cn[nH]n2)nc2c(-c3cnn(-c4ccccc4)c3)cnn2c1N [Compound 3.176, ((1R,3s,5S)-3-(7-amino-6-(methylsulfonyl)-3-(1-phenyl-1H-pyrazol-4-yl)pyrazolo[1,5-a]pyrimidin-5-yl)-8-azabicyclo[3.2.1]octan-8-yl)(2H-1,2,3-triazol-4-yl)methanone] | 100 to 1000 nM | 100 to 1000 nM |  | 
CS(=O)(=O)c1c([C@H]2CC3CC[C@H](C2)N3C(=O)c2cn[nH]n2)nc2c(-c3cnc4ccc(F)cc4c3)cnn2c1N [Compound 3.177, ((1R,3s,5S)-3-(7-amino-3-(6-fluoroquinolin-3-yl)-6-(methylsulfonyl)pyrazolo[1,5-a]pyrimidin-5-yl)-8-azabicyclo[3.2.1]octan-8-yl)(2H-1,2,3-triazol-4-yl)methanone] | 100 to 1000 nM | 100 to 1000 nM |  | 
CS(=O)(=O)c1c([C@H]2CC3CC[C@H](C2)N3C(=O)c2cn[nH]n2)nc2c(-c3cnn(-c4ccc(F)cc4)c3)cnn2c1N [Compound 3.178, ((1R,3s,5S)-3-(7-amino-3-(1-(4-fluorophenyl)-1H-pyrazol-4-yl)-6-(methylsulfonyl)pyrazolo[1,5-a]pyrimidin-5-yl)-8-azabicyclo[3.2.1]octan-8-yl)(2H-1,2,3-triazol-4-yl)methanone] | 1000 to 10000 nM | 1000 to 10000 nM |  | 
Cc1cnc(-c2ccc(-c3cnn4c(N)c(S(C)(=O)=O)c([C@H]5CC6CC[C@H](C5)N6C(=O)c5nnc[nH]5)nc34)cn2)s1 [Compound 3.180, ((1R,3s,5S)-3-(7-amino-6-(methylsulfonyl)-3-(6-(5-methylthiazol-2-yl)pyridin-3-yl)pyrazolo[1,5-a]pyrimidin-5-yl)-8-azabicyclo[3.2.1]octan-8-yl)(4H-1,2,4-triazol-3-yl)methanone] | 1 to 100 nM | 1 to 100 nM |  | 
Cc1cnc(-c2ccc(-c3cnn4c(N)c(S(C)(=O)=O)c([C@H]5CC6CC[C@H](C5)N6C(=O)c5cn[nH]n5)nc34)cn2)s1 [Compound 3.181, ((1R,3s,5S)-3-(7-amino-6-(methylsulfonyl)-3-(6-(5-methylthiazol-2-yl)pyridin-3-yl)pyrazolo[1,5-a]pyrimidin-5-yl)-8-azabicyclo[3.2.1]octan-8-yl)(2H-1,2,3-triazol-4-yl)methanone] | 100 to 1000 nM | 1 to 100 nM |  | 
CC(=O)N1[C@@H]2CC[C@H]1C[C@H](c1nc3c(-c4ccc(-c5ncc(C)s5)nc4)cnn3c(N)c1S(C)(=O)=O)C2 [Compound 3.182, 1-((1R,3s,5S)-3-(7-amino-6-(methylsulfonyl)-3-(6-(5-methylthiazol-2-yl)pyridin-3-yl)pyrazolo[1,5-a]pyrimidin-5-yl)-8-azabicyclo[3.2.1]octan-8-yl)ethanone] |  |  | 100 to 1000 nM | 100 to 1000 nM
Cc1nnc(C(=O)N2[C@@H]3CC[C@H]2C[C@H](c2nc4c(-c5ccc(-c6ncc(C)s6)nc5)cnn4c(N)c2S(C)(=O)=O)C3)[nH]1 [Compound 3.184, ((1R,3s,5S)-3-(7-amino-6-(methylsulfonyl)-3-(6-(5-methylthiazol-2-yl)pyridin-3-yl)pyrazolo[1,5-a]pyrimidin-5-yl)-8-azabicyclo[3.2.1]octan-8-yl)(5-methyl-4H-1,2,4-triazol-3-yl)methanone] | 1 to 100 nM | 1 to 100 nM |  | 
Cc1cnc(-c2ccc(-c3cnn4c(N)c(S(C)(=O)=O)c([C@@H]5C[C@H]6CC[C@@H](C5)N6C(=O)CO)nc34)cn2)s1 [Compound 3.185, 1-((1R,3a,5S)-3-(7-amino-6-(methylsulfonyl)-3-(6-(5-methylthiazol-2-yl)pyridin-3-yl)pyrazolo[1,5-a]pyrimidin-5-yl)-8-azabicyclo[3.2.1]octan-8-yl)-2-hydroxyethanone] | 100 to 1000 nM | 100 to 1000 nM |  | 
Cc1cnc(-c2ccc(-c3cnn4c(N)c(S(C)(=O)=O)c([C@@H]5C[C@H]6CC[C@@H](C5)N6C(=O)C5(O)CC5)nc34)cn2)s1 [Compound 3.186, ((1R,3s,5S)-3-(7-amino-6-(methylsulfonyl)-3-(6-(5-methylthiazol-2-yl)pyridin-3-yl)pyrazolo[1,5-a]pyrimidin5-yl)-8-azabicyclo[3.2.1]octan-8-yl)(1-hydroxycyclopropyl)methanone] | 1000 to 10000 nM | 1000 to 10000 nM |  | 
